Values of other authors in US20230321462A1, “Method for Improving Olfactory Sensitivity” (Kao Corporation, priority 2019, published 2023).

Assays:
Details in all cases: Table 3; cited from earlier work
OR51D1 = target: T1, OR51D1 (Homo sapiens, UniProt Q8NGF3)
T1 sequence (Q8NGF3 1-324): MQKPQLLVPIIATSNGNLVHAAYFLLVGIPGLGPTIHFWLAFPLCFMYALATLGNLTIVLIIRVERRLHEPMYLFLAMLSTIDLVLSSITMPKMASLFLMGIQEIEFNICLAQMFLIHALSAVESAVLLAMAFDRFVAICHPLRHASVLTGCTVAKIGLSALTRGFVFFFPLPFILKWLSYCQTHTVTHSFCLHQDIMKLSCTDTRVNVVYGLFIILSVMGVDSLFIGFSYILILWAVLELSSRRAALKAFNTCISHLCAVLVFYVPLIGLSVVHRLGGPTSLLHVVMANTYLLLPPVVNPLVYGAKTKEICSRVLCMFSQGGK

OR2T1 = target: T2, OR2T1 (Homo sapiens, UniProt O43869)
T2 sequence (O43869 1-369): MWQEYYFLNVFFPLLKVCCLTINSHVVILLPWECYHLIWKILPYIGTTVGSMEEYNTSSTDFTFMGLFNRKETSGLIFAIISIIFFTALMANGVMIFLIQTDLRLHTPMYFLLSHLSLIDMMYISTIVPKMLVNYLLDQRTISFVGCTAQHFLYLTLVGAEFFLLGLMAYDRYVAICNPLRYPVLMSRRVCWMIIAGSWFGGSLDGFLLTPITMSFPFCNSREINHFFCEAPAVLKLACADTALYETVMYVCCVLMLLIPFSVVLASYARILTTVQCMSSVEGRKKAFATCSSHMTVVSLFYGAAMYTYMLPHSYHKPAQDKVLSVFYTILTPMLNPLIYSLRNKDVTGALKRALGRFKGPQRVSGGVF

OR5Al1 = target: T3, OR5Al1 (Homo sapiens, UniProt P0C617)
T3 sequence (P0C617 1-329): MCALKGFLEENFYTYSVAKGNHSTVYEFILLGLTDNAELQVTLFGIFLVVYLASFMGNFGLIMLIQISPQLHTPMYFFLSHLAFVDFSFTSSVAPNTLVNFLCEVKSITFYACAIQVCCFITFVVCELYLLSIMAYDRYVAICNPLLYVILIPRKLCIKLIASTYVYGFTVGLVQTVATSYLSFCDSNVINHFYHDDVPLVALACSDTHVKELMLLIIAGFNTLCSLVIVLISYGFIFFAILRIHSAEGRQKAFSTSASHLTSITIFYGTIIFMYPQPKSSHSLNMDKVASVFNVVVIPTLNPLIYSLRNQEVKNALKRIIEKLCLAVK

OR7G2 = target: T4, OR7G2 (Homo sapiens, UniProt Q8NG99)
T4 sequence (Q8NG99 1-324): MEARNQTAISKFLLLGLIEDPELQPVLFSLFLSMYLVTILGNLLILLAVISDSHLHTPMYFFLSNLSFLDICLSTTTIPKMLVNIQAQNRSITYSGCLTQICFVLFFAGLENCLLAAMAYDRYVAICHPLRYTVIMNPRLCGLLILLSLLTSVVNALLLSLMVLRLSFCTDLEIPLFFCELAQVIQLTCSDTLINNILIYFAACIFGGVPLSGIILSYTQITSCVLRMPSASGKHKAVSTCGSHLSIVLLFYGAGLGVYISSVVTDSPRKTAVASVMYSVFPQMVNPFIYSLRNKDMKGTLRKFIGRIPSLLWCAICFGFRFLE

CCCC(=O)O [Butyric acid]
recognized by: recognition by OR51D1 (OR51D1) | recognition by OR2T1 (OR2T1) | recognition by OR5Al1 (OR5Al1) | recognition by OR7G2 (OR7G2)
